Literature values, collected in patent publication US11529304B2, “Method for dyeing keratin material by means of a dyeing agent and an acidic posttreatment agent” (Henkel AG & Co. KGaA, priority 2018, dated 2022).

Details: for solubility in water: 25° C.

Compound | solubility in water | solubility in water (in words) (at 25° C.)
O=C([O-])c1c(Cl)c(Cl)c(Cl)c(Cl)c1-c1c2c(Br)cc(=O)c(Br)c-2oc2c(Br)c(O)cc(Br)c12.O=C([O-])c1c(Cl)c(Cl)c(Cl)c(Cl)c1-c1c2c(Br)cc(=O)c(Br)c-2oc2c(Br)c(O)cc(Br)c12.[Na+].[Na+] [Acid Red 92, disodium salt of 3,4,5,6-tetrachloro-2-(1,4,5,8-tetrabromo-6-hydroxy-3-oxoxanthen-9-yl)benzoic acid] | greater than 10 g/L | 
mixture of the sodium salts of mono- and sisulfonic acids of 2-(2-quinolyl)-1H-indene-1,3(2H)-dione [Acid Yellow 3] | 20 g/L | 
O=S(=O)([O-])c1ccc(N=Nc2c(O)ccc3ccccc23)cc1.[Na+] [Acid Orange 7, sodium salt of 4-[(2-hydroxy-1-naphthyl)azo]benzene sulphonate] | more than 7 g/L | 
O=C([O-])C1=NN(c2ccc(S(=O)(=O)[O-])cc2)C(=O)C1N=Nc1ccc(S(=O)(=O)[O-])cc1.[Na+].[Na+].[Na+] (centres unmarked) [Acid Yellow 23] |  | highly soluble
Nc1cc(S(=O)(=O)[O-])cc2cc(S(=O)(=O)[O-])c(N=Nc3ccccc3)c(O)c12.[Na+].[Na+] [Acid Red 33, diantrium salt of 5-amino-4-hydroxy-3-(phenylazo)-naphthalene-2,7-disulphonate] | 2.5 g/L | 
